Data reported in ChEMBL document CHEMBL4706653, “Ultra-short lipopeptides against gram-positive bacteria while alleviating antimicrobial resistance” (Eur J Med Chem, 2021).
≈ marks a conversion by molar mass, not a printed value. Residues, ends and D or L forms follow the SMILES beside them. *: point of attachment. Myristoyl = CCCCCCCCCCCCCC(=O)*; Lauroyl = CCCCCCCCCCCC(=O)*; Decanoyl = CCCCCCCCCC(=O)*; Octanoyl = CCCCCCCC(=O)*

Assays:
[1] = test system: Erythrocyte; assay: Hemolytic activity against mouse erythrocytes measured after 1 hr; format: ADME, cell-based
[2] = test system: Staphylococcus epidermidis; assay: Antimicrobial activity against Staphylococcus epidermidis ATCC 12228 after 18 hrs by broth microdilution method; format: functional
[3] = test system: Staphylococcus aureus; assay: Antimicrobial activity against methicillin-resistant Staphylococcus aureus 113 after 18 hrs by broth microdilution method; format: functional
[4] = Therapeutic index, ratio of MHC for mouse RBC to geometric mean of peptide MIC for Staphylococcus epidermidis ATCC 12228; format: toxicity; conditions: pooled result: one value given for 6 cell lines, strains, targets or settings, read-out: TI
[5] = test system: Staphylococcus aureus; assay: Antimicrobial activity against Staphylococcus aureus ATCC 29213 after 18 hrs by broth microdilution method; format: functional
[6] = test system: Staphylococcus aureus; assay: Antimicrobial activity against Staphylococcus aureus ATCC 25923 after 18 hrs by broth microdilution method; format: functional
[7] = test system: Bacillus subtilis; assay: Antimicrobial activity against Bacillus subtilis ATCC 23857 after 18 hrs by broth microdilution method; format: functional
[8] = test system: Staphylococcus aureus; assay: Antimicrobial activity against methicillin-resistant Staphylococcus aureus 75 after 18 hrs by broth microdilution method; format: functional

Row | Compound | MHC10 [1] | MIC [2] | MIC [3] | selectivity ratio [4] | MIC [5] | MIC [6] | MIC [7] | MIC [8]
1 | CCCCCCCCCC(=O)N[C@@H](CCCNC(=N)N)C(=O)N[C@@H](CCCNC(=N)N)C(=O)N[C@@H](CCCNC(=N)N)C(N)=O (Decanoyl-Arg-Arg-Arg-NH2) | > 256 µM | 64 µM (≈ 41 µg/mL) | 128 µM (≈ 81.9 µg/mL) | 5.05 | 128 µM (≈ 81.9 µg/mL) | 128 µM (≈ 81.9 µg/mL) | 32 µM (≈ 20.5 µg/mL) | 128 µM (≈ 81.9 µg/mL)
2 | CCCCCCCCCC(=O)N[C@@H](CCCNC(=N)N)C(=O)N[C@@H](CCCNC(=N)N)C(=O)N[C@@H](Cc1c[nH]c2ccccc12)C(N)=O (Decanoyl-Arg-Arg-Trp-NH2) | > 256 µM | 16 µM (≈ 10.7 µg/mL) | 8 µM (≈ 5.36 µg/mL) | 32 | 16 µM (≈ 10.7 µg/mL) | 32 µM (≈ 21.4 µg/mL) | 8 µM (≈ 5.36 µg/mL) | 16 µM (≈ 10.7 µg/mL)
3 | CCCCCCCCCC(=O)N[C@@H](CCCNC(=N)N)C(=O)N[C@@H](Cc1c[nH]c2ccccc12)C(=O)N[C@@H](CCCNC(=N)N)C(N)=O (Decanoyl-Arg-Trp-Arg-NH2) | > 256 µM | 16 µM (≈ 10.7 µg/mL) | 16 µM (≈ 10.7 µg/mL) | 3.43 | 32 µM (≈ 21.4 µg/mL) | 16 µM (≈ 10.7 µg/mL) | 16 µM (≈ 10.7 µg/mL) | 16 µM (≈ 10.7 µg/mL)
4 | CCCCCCCCCC(=O)N[C@@H](CCCNC(=N)N)C(=O)N[C@@H](Cc1c[nH]c2ccccc12)C(=O)N[C@@H](Cc1c[nH]c2ccccc12)C(N)=O (Decanoyl-Arg-Trp-Trp-NH2) | > 256 µM | 32 µM (≈ 22.4 µg/mL) | 8 µM (≈ 5.6 µg/mL) | 27.4 | 16 µM (≈ 11.2 µg/mL) | 32 µM (≈ 22.4 µg/mL) | 16 µM (≈ 11.2 µg/mL) | 8 µM (≈ 5.6 µg/mL)
5 | CCCCCCCCCC(=O)N[C@@H](Cc1c[nH]c2ccccc12)C(=O)N[C@@H](CCCNC(=N)N)C(=O)N[C@@H](CCCNC(=N)N)C(N)=O (Decanoyl-Trp-Arg-Arg-NH2) | 256 µM | 8 µM (≈ 5.36 µg/mL) | 16 µM (≈ 10.7 µg/mL) | 21.3 | 16 µM (≈ 10.7 µg/mL) | 8 µM (≈ 5.36 µg/mL) | 8 µM (≈ 5.36 µg/mL) | 16 µM (≈ 10.7 µg/mL)
6 | CCCCCCCCCCCC(=O)N[C@@H](CCCNC(=N)N)C(=O)N[C@@H](CCCNC(=N)N)C(=O)N[C@@H](CCCNC(=N)N)C(N)=O (Lauroyl-Arg-Arg-Arg-NH2) | > 256 µM | 16 µM (≈ 10.7 µg/mL) | 16 µM (≈ 10.7 µg/mL) | 25.6 | 16 µM (≈ 10.7 µg/mL) | 32 µM (≈ 21.4 µg/mL) | 8 µM (≈ 5.34 µg/mL) | 32 µM (≈ 21.4 µg/mL)
7 | CCCCCCCCCCCC(=O)N[C@@H](CCCNC(=N)N)C(=O)N[C@@H](Cc1c[nH]c2ccccc12)C(=O)N[C@@H](CCCNC(=N)N)C(N)=O (Lauroyl-Arg-Trp-Arg-NH2) | 64 µM | 8 µM (≈ 5.58 µg/mL) | 4 µM (≈ 2.79 µg/mL) | 8 | 8 µM (≈ 5.58 µg/mL) | 16 µM (≈ 11.2 µg/mL) | 8 µM (≈ 5.58 µg/mL) | 4 µM (≈ 2.79 µg/mL)
8 | CCCCCCCCCCCC(=O)N[C@@H](CCCNC(=N)N)C(=O)N[C@@H](Cc1c[nH]c2ccccc12)C(=O)N[C@@H](Cc1c[nH]c2ccccc12)C(N)=O (Lauroyl-Arg-Trp-Trp-NH2) | > 256 µM | 64 µM (≈ 46.6 µg/mL) | 8 µM (≈ 5.82 µg/mL) | 12.8 | 64 µM (≈ 46.6 µg/mL) | 32 µM (≈ 23.3 µg/mL) | 64 µM (≈ 46.6 µg/mL) | 8 µM (≈ 5.82 µg/mL)
9 | CCCCCCCCCCCC(=O)N[C@@H](Cc1c[nH]c2ccccc12)C(=O)N[C@@H](CCCNC(=N)N)C(=O)N[C@@H](CCCNC(=N)N)C(N)=O (Lauroyl-Trp-Arg-Arg-NH2) | 64 µM | 8 µM (≈ 5.58 µg/mL) | 4 µM (≈ 2.79 µg/mL) | 8.73 | 8 µM (≈ 5.58 µg/mL) | 8 µM (≈ 5.58 µg/mL) | 8 µM (≈ 5.58 µg/mL) | 8 µM (≈ 5.58 µg/mL)
10 | CCCCCCCCCCCCCC(=O)N[C@@H](CCCNC(=N)N)C(=O)N[C@@H](CCCNC(=N)N)C(=O)N[C@@H](CCCNC(=N)N)C(N)=O (Myristoyl-Arg-Arg-Arg-NH2) | 128 µM | 8 µM (≈ 5.57 µg/mL) | 8 µM (≈ 5.57 µg/mL) | 6.86 | 64 µM (≈ 44.5 µg/mL) | 16 µM (≈ 11.1 µg/mL) | 8 µM (≈ 5.57 µg/mL) | 8 µM (≈ 5.57 µg/mL)
11 | CCCCCCCCCCCCCC(=O)N[C@@H](CCCNC(=N)N)C(=O)N[C@@H](CCCNC(=N)N)C(=O)N[C@@H](Cc1c[nH]c2ccccc12)C(N)=O (Myristoyl-Arg-Arg-Trp-NH2) | 32 µM | 8 µM (≈ 5.81 µg/mL) | 2 µM (≈ 1.45 µg/mL) | 6 | 4 µM (≈ 2.9 µg/mL) | 8 µM (≈ 5.81 µg/mL) | 8 µM (≈ 5.81 µg/mL) | 2 µM (≈ 1.45 µg/mL)
12 | CCCCCCCCCCCCCC(=O)N[C@@H](CCCNC(=N)N)C(=O)N[C@@H](Cc1c[nH]c2ccccc12)C(=O)N[C@@H](CCCNC(=N)N)C(N)=O (Myristoyl-Arg-Trp-Arg-NH2) | 64 µM | 4 µM (≈ 2.9 µg/mL) | 4 µM (≈ 2.9 µg/mL) | 10.7 | 8 µM (≈ 5.81 µg/mL) | 8 µM (≈ 5.81 µg/mL) | 8 µM (≈ 5.81 µg/mL) | 4 µM (≈ 2.9 µg/mL)
13 | CCCCCCCCCCCCCC(=O)N[C@@H](Cc1c[nH]c2ccccc12)C(=O)N[C@@H](CCCNC(=N)N)C(=O)N[C@@H](CCCNC(=N)N)C(N)=O (Myristoyl-Trp-Arg-Arg-NH2) | 64 µM | 4 µM (≈ 2.9 µg/mL) | 2 µM (≈ 1.45 µg/mL) | 13.7 | 8 µM (≈ 5.81 µg/mL) | 8 µM (≈ 5.81 µg/mL) | 4 µM (≈ 2.9 µg/mL) | 2 µM (≈ 1.45 µg/mL)
14 | CCCCCCCC(=O)N[C@@H](CCCNC(=N)N)C(=O)N[C@@H](CCCNC(=N)N)C(=O)N[C@@H](CCCNC(=N)N)C(N)=O (Octanoyl-Arg-Arg-Arg-NH2) | > 256 µM | > 128 µM | > 128 µM |  | > 128 µM | > 128 µM | > 128 µM | > 128 µM
15 | CCCCCCCC(=O)N[C@@H](CCCNC(=N)N)C(=O)N[C@@H](CCCNC(=N)N)C(=O)N[C@@H](Cc1c[nH]c2ccccc12)C(N)=O (Octanoyl-Arg-Arg-Trp-NH2) | > 256 µM | 64 µM (≈ 41.1 µg/mL) | 128 µM (≈ 82.2 µg/mL) | 7.38 | 64 µM (≈ 41.1 µg/mL) | 64 µM (≈ 41.1 µg/mL) | 32 µM (≈ 20.5 µg/mL) | 64 µM (≈ 41.1 µg/mL)
16 | CCCCCCCC(=O)N[C@@H](CCCNC(=N)N)C(=O)N[C@@H](Cc1c[nH]c2ccccc12)C(=O)N[C@@H](CCCNC(=N)N)C(N)=O (Octanoyl-Arg-Trp-Arg-NH2) | > 256 µM | 128 µM (≈ 82.2 µg/mL) | 128 µM (≈ 82.2 µg/mL) | 3.69 | 128 µM (≈ 82.2 µg/mL) | > 128 µM | 64 µM (≈ 41.1 µg/mL) | 128 µM (≈ 82.2 µg/mL)
17 | CCCCCCCC(=O)N[C@@H](CCCNC(=N)N)C(=O)N[C@@H](Cc1c[nH]c2ccccc12)C(=O)N[C@@H](Cc1c[nH]c2ccccc12)C(N)=O (Octanoyl-Arg-Trp-Trp-NH2) | > 256 µM | 16 µM (≈ 10.7 µg/mL) | 32 µM (≈ 21.5 µg/mL) | 29.5 | 16 µM (≈ 10.7 µg/mL) | 16 µM (≈ 10.7 µg/mL) | 16 µM (≈ 10.7 µg/mL) | 8 µM (≈ 5.37 µg/mL)
18 | CCCCCCCC(=O)N[C@@H](Cc1c[nH]c2ccccc12)C(=O)N[C@@H](CCCNC(=N)N)C(=O)N[C@@H](CCCNC(=N)N)C(N)=O (Octanoyl-Trp-Arg-Arg-NH2) | > 256 µM | 32 µM (≈ 20.5 µg/mL) | 128 µM (≈ 82.2 µg/mL) | 5.65 | 128 µM (≈ 82.2 µg/mL) | 128 µM (≈ 82.2 µg/mL) | 64 µM (≈ 41.1 µg/mL) | 64 µM (≈ 41.1 µg/mL)
19 | CN[C@H](CC(C)C)C(=O)N[C@H]1C(=O)N[C@@H](CC(N)=O)C(=O)N[C@H]2C(=O)N[C@H]3C(=O)N[C@H](C(=O)N[C@H](C(=O)O)c4cc(O)cc(O)c4-c4cc3ccc4O)[C@H](O)c3ccc(c(Cl)c3)Oc3cc2cc(c3O[C@@H]2O[C@H](CO)[C@@H](O)[C@H](O)[C@H]2O[C@H]2C[C@](C)(N)[C@H](O)[C@H](C)O2)Oc2ccc(cc2Cl)[C@H]1O [VANCOMYCIN] |  | < 1 µM | < 1 µM |  | < 1 µM | < 1 µM | < 1 µM | < 1 µM
